Data on 6 molecules can be found in PubChem BioAssay (NCI).

SMILES strings stand for the structures. Several values for one entry are separate records, joined by “and”; a condition that tells them apart may be missing. Equal values may be shown once.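 Briefly, cells in 96-well plates were exposed to five compound concentrations for 48 h, and endpoints were estimated by linear interpolation. GI50 is the concentration that inhibits growth by half. The concentration for full growth arrest is given as TGI.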

Among the test systems are HL-60(TB) leukemia; M14 melanoma; T-47D breast; MCF7 breast; HCT-15 colon; SF-539 CNS; HS 578T breast; HCT-116 colon; EKVX NSCLC; SNB-75 CNS.
Common to all, as to experiment: NCI tumour cell line growth inhibition, 48 h

Regarding `O=C(CCc1nnc(-c2c(Cl)cccc2Cl)o1)c1nc2ccccc2[nH]1`, the GI50 is 2230 nM with HL-60(TB) leukemia; 5860 nM in the experiment on M14 melanoma; 3340 nM in the experiment with T-47D breast; 4570 nM with MCF7 breast; 5130 nM in the experiment with HCT-15 colon; 10500 nM with SF-539 CNS. Further, the GI50 in the experiment on HS 578T breast is 9710 nM; in the experiment on HCT-116 colon, 3330 nM; with EKVX NSCLC it was 5480 nM; with SNB-75 CNS, 18700 nM. In addition, the TGI with HL-60(TB) leukemia is 19300 nM; in the experiment on M14 melanoma, 31500 nM; in the experiment on T-47D breast, 60000 nM; with MCF7 breast, over 100000 nM; in the experiment with HCT-15 colon, 48600 nM; in the experiment on SF-539 CNS, 39600 nM. Also, the TGI in the experiment with HS 578T breast is 93900 nM; in the experiment on HCT-116 colon it was 13500 nM; in the experiment with EKVX NSCLC, over 100000 nM; in the experiment on SNB-75 CNS it was over 100000 nM.

As to `CCCN(CCC)c1ccc(C=O)cc1`, the GI50 with HL-60(TB) leukemia was 27000 nM; in the experiment on M14 melanoma it was over 100000 nM; with T-47D breast it was 21100 nM; with MCF7 breast it was 36000 nM; with HCT-15 colon it was over 84200 nM; with SF-539 CNS, over 100000 nM. For the same molecule, the GI50 with HS 578T breast was over 62100 nM; in the experiment on HCT-116 colon, 39700 nM; in the experiment on EKVX NSCLC, 30200 nM; with SNB-75 CNS, 18400 nM. The TGI in the experiment with HL-60(TB) leukemia was over 84000 nM; in the experiment on M14 melanoma, over 100000 nM; in the experiment on T-47D breast it was over 100000 nM; in the experiment with MCF7 breast, over 100000 nM; in the experiment with HCT-15 colon, over 100000 nM; in the experiment with SF-539 CNS it was over 100000 nM. Further, the TGI in the experiment with HS 578T breast, in the experiment with HCT-116 colon, with EKVX NSCLC and in the experiment with SNB-75 CNS was over 100000 nM in each case.

Take `C=C1C(=O)O[C@H]2[C@H]1CC/C(COC(=O)/C=C\C(=O)NCc1ccc(Cn3c(=O)sn(-c4ccc(OC)cc4)c3=O)cc1)=C\CC[C@@]1(C)O[C@@H]21`: the GI50 in the experiment on HL-60(TB) leukemia was 876 nM; in the experiment with M14 melanoma, 603 nM; in the experiment on T-47D breast, 839 nM; in the experiment on MCF7 breast it was 292 nM; in the experiment on HCT-15 colon, 443 nM; in the experiment with SF-539 CNS it was 736 nM. The GI50 in the experiment on HS 578T breast was 913 nM; in the experiment with HCT-116 colon, 171 nM; in the experiment with EKVX NSCLC it was 773 nM; with SNB-75 CNS it was 407 nM. Also, the TGI was 3740 nM with HL-60(TB) leukemia; 1360 nM with M14 melanoma; 2020 nM in the experiment with T-47D breast; 1170 nM in the experiment on MCF7 breast; 1560 nM in the experiment on HCT-15 colon; 1410 nM in the experiment on SF-539 CNS. For the same molecule, the TGI is 2510 nM with HS 578T breast, 755 nM in the experiment on HCT-116 colon, 1510 nM in the experiment on EKVX NSCLC and 1230 nM in the experiment on SNB-75 CNS.

Turning to `COc1ccc2nc3cccc([N+](=O)[O-])c3c(NCCN(CCO)CCO)c2c1`, the GI50 was 23.5 nM with HL-60(TB) leukemia; 12.8 nM with M14 melanoma; 91.3 nM with T-47D breast; 13.8 nM in the experiment on MCF7 breast; 157 nM in the experiment on HCT-15 colon; 89.3 nM with SF-539 CNS. Further, the GI50 in the experiment with HS 578T breast was 64.7 nM; in the experiment with HCT-116 colon, 15.4 nM; in the experiment on EKVX NSCLC, 107 nM; in the experiment on SNB-75 CNS, 74.7 nM. The TGI came out at 1490 nM with HL-60(TB) leukemia; 27.5 nM in the experiment on M14 melanoma; 1010 nM in the experiment with T-47D breast; 548 nM in the experiment on MCF7 breast; 60800 nM in the experiment on HCT-15 colon; 270 nM in the experiment with SF-539 CNS. In addition, the TGI with HS 578T breast came to 272 nM; in the experiment with HCT-116 colon it was 607 nM; with EKVX NSCLC it was 698 nM; with SNB-75 CNS, 225 nM.

Take `CS(=O)(=O)N1CCN(Cc2cc3nc(-c4cccc5[nH]ncc45)nc(N4CCOCC4)c3s2)CC1`: the GI50 was 121 nM and 52 nM in the experiment with HL-60(TB) leukemia; 2130 nM and 438 nM with M14 melanoma; 66.8 nM and 35 nM in the experiment with T-47D breast; 76.6 nM and 83 nM in the experiment on MCF7 breast; 721 nM and 453 nM with HCT-15 colon; 444 nM and 268 nM in the experiment on SF-539 CNS. The GI50 is 134 nM and 148 nM in the experiment on HS 578T breast; 1720 nM and 494 nM in the experiment with HCT-116 colon; 445 nM and 577 nM with EKVX NSCLC; 91.8 nM and 30.1 nM in the experiment on SNB-75 CNS. For the same molecule, the TGI with HL-60(TB) leukemia is over 100000 nM; in the experiment with M14 melanoma it was over 100000 nM; in the experiment on T-47D breast it was 505 nM; in the experiment on MCF7 breast it was over 100000 nM; with HCT-15 colon, over 100000 nM; in the experiment with HS 578T breast it was 1440 nM and 1110 nM. In addition, the TGI was over 100000 nM in the experiment on HCT-116 colon; over 100000 nM in the experiment with EKVX NSCLC; 3280 nM and 495 nM with SNB-75 CNS.

With `O=C(c1ccccn1)c1nnn2ccccc12`, the TGI in the experiment on HL-60(TB) leukemia, with M14 melanoma, in the experiment on T-47D breast, in the experiment with MCF7 breast, with HCT-15 colon and with SF-539 CNS was over 100000 nM each time. In addition, the TGI in the experiment on HS 578T breast, with HCT-116 colon, in the experiment with EKVX NSCLC and in the experiment with SNB-75 CNS was over 100000 nM each time.
